Residues, ends and D or L forms follow the SMILES beside them. No end group written: not given here.

The text below walks through data of patent US6294537A, “Compounds which are specific antagonists of the human NK3 receptor and their use as medicinal products and diagnostic tools” (Sanofi-Synthelabo, priority 1999, dated 2001).

Test [1] concerns the target T1, human NK3 receptor (Homo sapiens, UniProt P29371).
T1 construct: expressed in transfected cells; host or cells: CHO cells
T1 sequence (P29371 1-465): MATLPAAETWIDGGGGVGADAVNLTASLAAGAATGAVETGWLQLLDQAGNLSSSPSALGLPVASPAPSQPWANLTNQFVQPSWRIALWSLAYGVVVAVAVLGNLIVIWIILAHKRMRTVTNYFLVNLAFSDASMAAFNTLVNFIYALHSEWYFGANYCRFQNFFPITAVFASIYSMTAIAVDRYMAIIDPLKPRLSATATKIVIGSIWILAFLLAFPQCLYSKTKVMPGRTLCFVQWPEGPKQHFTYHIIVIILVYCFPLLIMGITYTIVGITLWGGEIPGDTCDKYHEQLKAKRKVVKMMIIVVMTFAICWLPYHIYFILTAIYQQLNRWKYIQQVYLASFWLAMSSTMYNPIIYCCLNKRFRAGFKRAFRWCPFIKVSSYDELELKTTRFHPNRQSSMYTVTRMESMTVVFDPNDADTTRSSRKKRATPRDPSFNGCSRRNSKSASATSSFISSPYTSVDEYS
Kind of test: Binding of [125I]His[MePhe7]NKB to cloned human NK3 receptors expressed by CHO cells. As to conditions: for Ki: cloned human NK3 receptors expressed by CHO cells, read-out: inhibition constant Ki, human NK3 receptor; for selectivity / specificity for the human NK3 receptor: from Ki at human NK3 versus rat NK2/NK1 receptors. As for the experimental part: (§1) The affinity of the compounds of formula (I') for the tachykinin receptors was evaluated in vitro by several biochemical assays using radioligands:
(§2) 3) The binding of [^125 I]His[MePhe^7 ]NKB to the NK3 receptors of rat cerebral cortex, of guinea pig cerebral cortex and of gerbil cerebral cortex as well as to the cloned human NK3 receptors expressed by CHO cells (Buell et al., FEBS Letters, 1992, 299, 90-95).
(§3) The assays were carried out according to X. Emonds-Alt et al. (Eur. J. Pharmacol., 1993, 250, 403-413).

Test [2] addresses T2, NK2 receptor of rat duodenum (Rattus norvegicus, UniProt P16610).
T2 construct: NK2 receptors of rat duodenum; from tissue; host or cells: rat duodenum
T2 sequence (P16610 1-390): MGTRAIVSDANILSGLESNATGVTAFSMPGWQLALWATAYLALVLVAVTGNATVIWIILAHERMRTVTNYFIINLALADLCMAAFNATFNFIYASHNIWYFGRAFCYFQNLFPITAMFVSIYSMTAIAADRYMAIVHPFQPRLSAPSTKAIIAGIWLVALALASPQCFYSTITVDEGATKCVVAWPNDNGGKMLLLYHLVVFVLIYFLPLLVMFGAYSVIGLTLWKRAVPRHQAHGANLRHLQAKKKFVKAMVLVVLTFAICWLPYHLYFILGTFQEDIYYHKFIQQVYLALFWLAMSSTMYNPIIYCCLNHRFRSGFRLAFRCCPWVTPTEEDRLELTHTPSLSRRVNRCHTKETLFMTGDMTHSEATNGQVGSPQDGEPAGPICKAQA
Kind of test: Binding of [125I]His-NKA to NK2 receptors of rat duodenum. As to conditions: read-out: inhibition constant Ki, rat duodenum NK2 receptor. As for the experimental part:
as §1
2) The binding of [^125 I]His-NKA to the NK2 receptors of rat duodenum or of guinea pig ileum.
as §3

Test [3] has as its target T3, NK1 receptors of rat cortex (Rattus norvegicus, UniProt P14600).
T3 construct: NK1 receptors of rat cortex; from tissue; host or cells: rat cortex
Kind of test: Binding of [125I]BH-SP to NK1 receptors of rat cortex. The conditions noted are these: read-out: inhibition constant Ki, rat cortex NK1 receptor. As to the method:
as §1
1) The binding of [^125 I]BH-SP (substance P labeled with iodine 125 with the aid of the Bolton-Hunter reagent) to the NK1 receptors of rat cortex, of guinea pig ileum and of human lymphoblastic cells.
as §3

Test [4] concerns the target T4, NK3 receptors of rat cerebral cortex (Rattus norvegicus, UniProt P16177).
T4 construct: NK3 receptors of rat cerebral cortex; from tissue; host or cells: rat cerebral cortex
T4 sequence (P16177 1-452): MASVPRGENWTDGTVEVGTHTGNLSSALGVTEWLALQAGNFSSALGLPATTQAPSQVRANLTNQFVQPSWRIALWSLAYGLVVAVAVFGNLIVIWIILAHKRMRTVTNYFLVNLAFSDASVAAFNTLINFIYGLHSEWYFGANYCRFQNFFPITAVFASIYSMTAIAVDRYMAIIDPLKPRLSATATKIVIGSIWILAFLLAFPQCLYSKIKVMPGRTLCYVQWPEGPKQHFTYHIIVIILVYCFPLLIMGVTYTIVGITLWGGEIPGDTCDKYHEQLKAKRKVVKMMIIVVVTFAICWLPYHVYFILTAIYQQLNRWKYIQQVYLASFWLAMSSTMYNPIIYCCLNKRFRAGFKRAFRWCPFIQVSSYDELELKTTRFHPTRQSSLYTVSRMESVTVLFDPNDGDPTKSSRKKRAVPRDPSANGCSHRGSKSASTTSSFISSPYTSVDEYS
Kind of test: Binding of [125I]His[MePhe7]NKB to NK3 receptors of rat cerebral cortex. The conditions noted are these: read-out: inhibition constant Ki, rat NK3 receptor. As to the method:
as §1, §2, §3

For test [5], the target named is rat NK3 receptor. The conditions noted are these: Patent Application EP 512901; read-out: Ki, antagonizes the binding of eledoisin; cited from earlier work.
Test [6] deals with NK3 receptor. Kind of test: Rotating behavior induced in gerbils by intrastriatal senktide. The format is in vivo. The conditions noted are these: gerbil; unilateral application in the striatum. As for the experimental part:
(§4) The compounds according to the present invention were also evaluated in vivo on two animal models.

For test [7], the system named is NK3 receptor. The test is described as follows: Hypertension induced in guinea pigs by intravenous or intracerebroventricular senktide. Type of test: in vivo. The conditions noted are these: guinea pig; intravenous or intracerebroventricular injection. As to the method: as §4
In test [8] the test system is rat NK3 receptor. As to conditions: literature, J. Autonomic Pharmacol. 1993; cited from earlier work.

T3 sequence (P14600 whole entry): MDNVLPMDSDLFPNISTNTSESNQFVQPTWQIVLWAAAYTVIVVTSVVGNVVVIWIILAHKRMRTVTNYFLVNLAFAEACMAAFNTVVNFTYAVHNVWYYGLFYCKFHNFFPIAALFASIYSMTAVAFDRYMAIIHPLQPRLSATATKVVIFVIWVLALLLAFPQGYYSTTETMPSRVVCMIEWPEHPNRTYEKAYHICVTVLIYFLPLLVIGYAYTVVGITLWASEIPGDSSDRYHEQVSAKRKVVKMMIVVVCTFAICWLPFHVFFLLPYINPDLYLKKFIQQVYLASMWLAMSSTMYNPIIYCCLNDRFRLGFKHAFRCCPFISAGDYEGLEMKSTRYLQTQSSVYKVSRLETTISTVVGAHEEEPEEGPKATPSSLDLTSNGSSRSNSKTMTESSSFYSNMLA

A word on the Ki: it is the dissociation constant of the complex between target and ligand, obtained from inhibition or displacement. With `CN(CC(CCCN1CCC(O)(c2ccccc2)CC1)c1ccc(Cl)c(Cl)c1)C(=O)c1ccccc1.Cl` (stereo not drawn) [Example 1, N-Methyl-N-[2-(3,4-dichlorophenyl)-5-(4-hydroxy-4-phenylpiperid-1-yl)pentyl]benzamide hydrochloride], the figures for the Ki in test [1], in test [2] and in test [3] were 5 nM, 500 nM and 500 nM, respectively. Moreover, the “selectivity / specificity for the human NK3 receptor” value in test [1] is “high specificity”.
Consider `Cl.O=C1CCC(CCN2CCC(O)(c3ccccc3)CC2)(c2ccc(Cl)c(Cl)c2)CN1Cc1ccccc1` (stereo not drawn) [compound A, 5-[2-(4-hydroxy-4-phenylpiperid-1-yl)ethyl]-5-(3,4-dichlorophenyl)-1-benzylpiperid-2-one hydrochloride], for which the Ki in test [4] was 100 nM; in test [1] it was 1 nM; in test [2] it was 0.1 nM; in test [5], 200 nM. Moreover, the “selectivity / specificity for the human NK3 receptor” value in test [1] is “not selective”.
With `CSCC[C@H](NC(=O)[C@H](CC(C)C)NC(=O)CNC(=O)[C@H](Cc1ccccc1)N(C)C(=O)[C@H](Cc1ccccc1)NC(=O)[C@H](CC(=O)O)NC(=O)CCC(=O)O)C(N)=O` [senktide] (HELM PEPTIDE1{[O=C(O)CCC(=O)[*:2]].D.F.[meF].G.L.M.[am]}$$$$V2.0), the “contralateral rotations induced by senktide” value in test [6] is given as “strong contralateral rotations”. Moreover, in test [7], the “hypertension induced by senktide” value was “induces a hypertension”.
For “[Trp^7, Ala^8 ]NKA: A peptide antagonist, weakly specific for rat NK3 receptor (HKTDSFWALM; ends and bridges not checked; UniProt P20366 98-107, looked up, variant V7W G8A)”, in test [8], the “specificity for rat NK3 receptor” value is listed as “weakly specific”.
